In US20120238487A1, “POLYMER COMPOSITION USEFUL AS A PHARMACEUTICAL CARRIER” (ROBERT GORDON UNIVERSITY, priority 2009, published 2012):
Values after ≈ are worked out from the molar mass of the structure shown. Read-outs that look alike come from different tables or passages of the source. Values belong to the compound of their own block, whether it stands above or below them.

How the values were obtained:
[1] = format: physicochemical
Experimental: Polymer solutions of 1 […] 6 mgmL^-1 were made up in deionised water and probe sonicated for 10 mins to ensure homogeneity. […] The drug loading capacity of the self assemblies was determined using high performance liquid chromatography (HPLC). […] The samples were diluted with mobile phase and 20 μl was injected onto the column, the resultant peak at 7 mins was analysed.

[2] = format: physicochemical; remark: listed apart in the source
Experimental: Polymer solutions of 1 […] 6 mgmL^-1 were made up in deionised water and probe sonicated for 10 mins to ensure homogeneity. […] A reverse phase Phenomenex C18 250 mm×46 mm×5 μm HPLC column was used with flow rate of 1 mlmin^-1 of the mobile phase (45:55 acetonitrile:45 mM potassium dihydrogen phosphate made up in water and pH adjusted to pH3 with orthophosphoric acid) in an isocratic mode.

[3] = format: physicochemical; remark: listed apart in the source
Experimental: (§1) Polymer solutions of 1 mgmL^−1, 3 mgmL^−1 and 6 mgmL^−1 were made up in deionised water and probe sonicated for 10 mins to ensure homogeneity. The hydrophobic drug was added in 1:1, 5:1 and 10:1 drug:excipient ratios and the drug-polymer solutions were probe sonicated for a further 10 mins to ensure maximum encapsulation was achieved. After cooling to room temperature, the solutions were filtered using 0.45 μm GDX PVDF syringe filters to ensure any excess unencapsulated propofol was removed.
A reverse phase Zorbax ODS 250 mm×46 mm×5 […] HPLC column was used with flow rate of 1 mlmin^−1 of the mobile phase (40:3:57 methanol:acetonitrile:water) in an isocratic mode. […] The samples were diluted with mobile phase and 20 μl was injected onto the column, the resultant peak at 20 mins was analysed. The drug content was determined by comparing to a calibration carried out on etoposide dissolved in methanol (31.3-500 μgmL^−1).

HEK 293 cells = assay: MTT assay on HEK 293 cells; format: cell-based, Human; details: for IC50: Homo sapiens
Experimental: The safety profile of various drugs and nano-aggregates of the drugs and polymers were investigated using the standard colorimetric MTT (3-(4,5-Dimethylthiazol-2-yl)-2,5-diphenyltetrazolium bromide) assay.
An MTT assay was carried out using Caco-2 and HEK cells. Caco-2 cells were cultured as previously described. HEK cells were cultured in Dulbecco's minimum essential medium (DMEM) containing 10% FBS and 1% penicillin streptomycin (Penstrep).
Polymeric self-assemblies were formed by probe sonicating the polymers in sterile water (5 mgmL^−1). The polymer stock solutions were diluted to 0.005 mgmL^−1 with media. Etoposide stock solution (20 mgmL^−1) was prepared by diluting the drug in DMSO. The formulations were prepared by addition of drug into 0.005 mgmL^−1 polymer solution.

[4] = Aqueous solubility of model hydrophobic drugs; format: physicochemical
Caco-2 cells = assay: MTT assay on Caco-2 cells; format: cell-based
Experimental: The cytotoxicity of the modified PAA polymers was determined using the MTT assay model. Caco-2 cells were cultured in minimum essential medium (MEM) containing 10% foetal bovine serum (FBS), 1% L-glutamine and 1% non essential amino acids (NEAA).
A 10 mgmL^−1 polymer solution was prepared using sterile water as the diluent. The solution was further diluted with media to form a 0.5 mgmL^−1 stock solution. From the stock solution nine dilutions (0.2-1×10^−4 mgmL^−1) were made using media as the diluent.
Caco-2 cells (200 μL, 10000 cells/well) in exponential growth phases were seeded into a 96-well flat bottomed plate and incubated for 24 h at 37° C. with 5% CO2. The media was replaced with increasing polymer concentrations (0.5-1×10^−4 mgmL^−1) as prepared above. Media and Triton X (1:5 PBS) were the negative and positive controls respectively. The plate was incubated as before. After 24 h the polymer solutions were removed and replaced with fresh media. […] The remaining purple formazan complexes were dissolved in DMSO (200 μL) and L-glycine buffer (25 mL, made up of 3.75 g glycine and 2.93 g NaCl made up in 500 mL and pH adjusted to pH 10.5) and the absorbance of the plates was read at 570 nm using a microplate reader (Ascend Lab-Systems, UK). Percentage cell viability was calculated relative to the positive and negative controls. […]

[5] = cited from earlier work
[6] = Drug loading capacity: solubilisation of prednisolone (HPLC); format: physicochemical
[7] = format: physicochemical; remark: listed apart in the source
Experimental: as §1
The BNIPDaoct content in self assemblies was carried out using reverse phase Zorbax ODS 250 mm×46 mm×5 […] HPLC column was used with flow rate of 1 mlmin^−1 of the mobile phase (55:45 buffer:acteonitrile) in an isocratic mode. The buffer was made up of 0.4 g octane sulfonic acid and anhydrous sodium acetate made up to 200 ml with deionised water, the solution was pH adjusted to pH4.5. The column eluent was monitored using a fluorescent Detector. The samples were diluted with mobile phase and 20 μl was injected onto the column, the resultant peak at 10 mins was analysed. A calibration was carried out by dissolving BNIPDaoct in DMSO:water (50:50 v/v) (39-625 μgmL^−1).

Compound: 5-Dimethylamino-1-naphthalenesulfonyl-PAA [Dansyl10]
Increase from aqueous solubility [2]: 557 Fold | Concentration of Etoposide solubilised [3]: 1.890 (0.011) mgmL^−1

Compound: O=C1c2cccc3cccc(c23)C(=O)N1CCCNCCCCCCCCNCCCN1C(=O)c2cccc3cccc(c23)C1=O [BNIPDaoct, Bisnahthalimidopropyldiaminooctane]
IC50 (n = 3 ± SD) (HEK 293 cells; HEK 293 cells, IC50 of the polymer was used in the formulations): 0.00496 (0.00005) mgmL^−1 | aqueous solubility (in words) [4]: negligible

Compound: COc1cc([C@@H]2c3cc4c(cc3[C@@H](O[C@@H]3O[C@@H]5CO[C@@H](C)O[C@H]5[C@H](O)[C@H]3O)[C@H]3COC(=O)[C@H]23)OCO4)cc(OC)c1O [Etoposide]
IC50 (HEK 293 cells; HEK293, read-out: IC50 (n = 3 ± SD), HEK 293 cells, IC50 of the polymer was used in the formulations): 2.48 µg/mL (≈ 4.21 µM) | IC50 (HEK 293 cells; HEK293, IC90 of the polymer used in the formulations (5 μgmL^−1), read-out: IC50 on HEK 293 cells): 2.5 µg/mL (≈ 4.25 µM) | IC50 (Caco-2 cells; Homo sapiens, Caco-2, read-out: IC50 on Caco-2 cells): 190 µg/mL (≈ 323 µM) | aqueous solubility ([5]; 37° C.): 148 to 153 µg/mL | aqueous solubility ([5]; value used for fold increase): 0.15 mgmL^−1

Compound: COC1=CC(=O)C[C@@H](C)[C@]12Oc1c(Cl)c(OC)cc(OC)c1C2=O [Griseofulvin, (2S)-trans-7-chloro-2′,4,6-trimethoxy 6′-methylspiro(benzofuran-2[3H],1′-[2]cyclohexene)3,4′-dione]
aqueous solubility ([5]; 25° C.): 30 µg/mL (≈ 85 µM) | aqueous solubility ([5]; value used for fold increase): 0.03 mgmL^−1

Compound: CC(C)c1cccc(C(C)C)c1O [Propofol, 2,6-diisopropylphenol]
aqueous solubility ([5]; 25° C.): 100 µg/mL (≈ 561 µM) | aqueous solubility ([5]; value used for fold increase): 0.1 mgmL^−1

Continued, in another order:

maximum concentration of propofol solubilised [1]: 22.4 mgmL^−1
Compound: 5-Dimethylamino-1-naphthalenesulfonyl-PAA [Dansyl5]

maximum concentration of prednisolone solubilised [6]: 7.05 mgmL^−1 | Concentration of Griseofulvin solubilised [2]: 1.2 mgmL^−1 | Excipient:Drug Ratio after solubilisation [2]: 5.00 | Increase from aqueous solubility [2]: 40 Fold | Concentration of Etoposide solubilised [3]: 1.020 (0.040) mgmL^−1 | Excipient:Drug Ratio after solubilisation [3]: 5.88 | Increase from aqueous solubility [3]: 7 Fold | Concentration of BNIPDaoct solubilised [7]: 0.3 mgmL^−1 | Excipient:Drug Ratio after solubilisation [7]: 3.33
Compound: Cholesterol-PAA [Ch5]
Number of fold more cytotoxic compared to IC50 of PAA (Caco-2 cells): −1.61
